What was measured:
Type in all cases: in vivo
Plutella xylostella = Plutella xylostella (Diamond Back Moth); conditions: 120 h, application rate of 200 ppm, artificial diet, L2 larvae, 5 days after infestation, read-out: effect in at least one of the two categories (mortality or growth inhibition)
Experimental: 24-well microtiter plates with artificial diet were treated with aqueous test solutions prepared from 10,000 ppm DMSO stock solutions by pipetting. After drying, the plates were infested with L2 larvae (10 to 15 per well). The samples were assessed for mortality and growth inhibition in comparison to untreated samples 5 days after infestation.

Euschistus heros = Euschistus heros (Neotropical Brown Stink Bug); conditions: 120 h, application rate of 200 ppm, sprayed soybean leaves, N2 nymphs, 5 days after infestation, read-out: effect in at least one of the two categories (mortality or growth inhibition)
Experimental: Soybean leaves on agar in 24-well microtiter plates were sprayed with aqueous test solutions prepared from 10,000 ppm DMSO stock solutions. After drying the leaves were infested with N2 nymphs. The samples were assessed for mortality and growth inhibition in comparison to untreated samples 5 days after infestation.

Myzus persicae [1] = experiment: Myzus persicae (Green Peach Aphid). Systemic Activity; conditions: 144 h, test rate of 24 ppm, roots of infested pea seedlings in test solution, 6 days
Experimental: Roots of pea seedlings infested with an aphid population of mixed ages were placed directly into aqueous test solutions prepared from 10,000 DMSO stock solutions. The samples were assessed for mortality 6 days after placing seedlings into test solutions.

Spodoptera littoralis = Spodoptera littoralis (Egyptian Cotton Leaf Worm), sprayed cotton leaf discs; conditions: foliar, 72 h, application rate of 200 ppm, L1 larvae, 3 days after infestation
Experimental: Cotton leaf discs were placed onto agar in 24-well microtiter plates and sprayed with aqueous test solutions prepared from 10,000 ppm DMSO stock solutions. After drying the leaf discs were infested with five L1 larvae. The samples were assessed for mortality, anti-feeding effect, and growth inhibition in comparison to untreated samples 3 days after infestation. Control of Spodoptera littoralis by a test sample is given when at least one of the categories mortality, anti-feedant effect, and growth inhibition is higher than the untreated sample.

Myzus persicae [2] = experiment: Myzus persicae (Green Peach Aphid): Feeding/Contact Activity; conditions: foliar, 144 h, application rate of 200 ppm, sprayed sunflower leaf discs, aphid population of mixed ages, 6 days after infestation
Experimental: Sunflower leaf discs were placed onto agar in a 24-well microtiter plate and sprayed with aqueous test solutions prepared from 10,000 ppm DMSO stock solutions. After drying, the leaf discs were infested with an aphid population of mixed ages. The samples were assessed for mortality 6 days after infestation.

Diabrotica balteata = Diabrotica balteata (Corn Root Worm); conditions: 96 h, application rate of 200 ppm, sprayed maize sprouts, L2 larvae, 4 days after infestation, read-out: effect in at least one of the two categories (mortality or growth inhibition)
Experimental: Maize sprouts placed onto an agar layer in 24-well microtiter plates were treated with aqueous test solutions prepared from 10,000 ppm DMSO stock solutions by spraying. After drying, the plates were infested with L2 larvae (6 to 10 per well). The samples were assessed for mortality and growth inhibition in comparison to untreated samples 4 days after infestation.

Bemisia tabaci = Bemisia tabaci (Cotton White Fly): Feeding/Contact Activity; conditions: foliar, 144 h, application rate of 200 ppm, sprayed cotton leaf discs, adult white flies, 6 days after incubation
Experimental: Cotton leaf discs were placed on agar in 24-well microtiter plates and sprayed with aqueous test solutions prepared from 10,000 ppm DMSO stock solutions. After drying the leaf discs were infested with adult white flies. The samples were checked for mortality 6 days after incubation.

CCn1c(C(F)(F)F)cc2nc(-c3ncc(C(=O)N(C)C4CC4)cc3S(=O)(=O)CC)n(C)c2c1=O [Compound A17, N-cyclopropyl-6-[5-ethyl-3-methyl-4-oxo-6-(trifluoromethyl)imidazo[4,5-c]pyridin-2-yl]-5-ethylsulfonyl-N-methyl-pyridine-3-carboxamide]
≥ 80%: percent effect (mortality or growth inhibition) at 200 ppm (Plutella xylostella) | percent effect (mortality or growth inhibition) at 200 ppm (Euschistus heros) | mortality at 24 ppm (Myzus persicae [1])

CCn1c(C(F)(F)F)cc2nc(-c3ncc(N(C)N(C)C(=O)C4CC4)cc3S(=O)(=O)CC)n(C)c2c1=O [Compound A22, N′-[6-[5-ethyl-3-methyl-4-oxo-6-(trifluoromethyl)imidazo[4,5-c]pyridin-2-yl]-5-ethylsulfonyl-3-pyridyl]-N,N′-dimethyl-cyclopropanecarbohydrazide]
≥ 80%: percent effect (mortality or growth inhibition) at 200 ppm (Plutella xylostella) | percent effect (mortality or growth inhibition) at 200 ppm (Euschistus heros) | percent control (mortality, anti-feeding effect or growth inhibition) at 200 ppm (Spodoptera littoralis) | mortality at 24 ppm (Myzus persicae [1])

CCn1c(C(F)(F)F)cc2nc(-c3ncc(C(=O)NCC#N)cc3S(=O)(=O)CC)n(C)c2c1=O [Compound A28, N-(cyanomethyl)-6-[5-ethyl-3-methyl-4-oxo-6-(trifluoromethyl)imidazo[4,5-c]pyridin-2-yl]-5-ethylsulfonyl-pyridine-3-carboxamide]
≥ 80%: percent effect (mortality or growth inhibition) at 200 ppm (Plutella xylostella) | percent effect (mortality or growth inhibition) at 200 ppm (Euschistus heros) | mortality at 24 ppm (Myzus persicae [1]) | mortality at 200 ppm (Myzus persicae [2])

CCn1c(C(F)(F)F)cc2nc(-c3ncc(N(C)S(=O)(=O)C4CC4)cc3S(=O)(=O)CC)n(C)c2c1=O [Compound A37, N-[6-[5-ethyl-3-methyl-4-oxo-6-(trifluoromethyl)imidazo[4,5-c]pyridin-2-yl]-5-ethylsulfonyl-3-pyridyl]-N-methyl-cyclopropanesulfonamide]
≥ 80%: effect mortality or growth inhibition at 200 ppm (Diabrotica balteata) | mortality at 200 ppm (Bemisia tabaci) | percent effect (mortality or growth inhibition) at 200 ppm (Plutella xylostella) | percent effect (mortality or growth inhibition) at 200 ppm (Euschistus heros) | percent control (mortality, anti-feeding effect or growth inhibition) at 200 ppm (Spodoptera littoralis)

CCn1c(C(F)(F)F)cc2nc(-c3ncc(NC(=O)C4(C#N)CC4)cc3S(=O)(=O)CC)n(C)c2c1=O [Compound A55, 1-cyano-N-[6-[5-ethyl-3-methyl-4-oxo-6-(trifluoromethyl)imidazo[4,5-c]pyridin-2-yl]-5-ethylsulfonyl-3-pyridyl]cyclopropanecarboxamide]
≥ 80%: percent effect (mortality or growth inhibition) at 200 ppm (Plutella xylostella) | percent control (mortality, anti-feeding effect or growth inhibition) at 200 ppm (Spodoptera littoralis) | mortality at 24 ppm (Myzus persicae [1]) | mortality at 200 ppm (Myzus persicae [2])

CCS(=O)(=O)c1ccc(NC(=O)OC(C)(C)C)nc1-c1nc2cc(C(F)(F)F)n(C3CC3)c(=O)c2n1C [Compound A63, Tert-butyl N-[6-[5-cyclopropyl-3-methyl-4-oxo-6-(trifluoromethyl)imidazo[4,5-c]pyridin-2-yl]-5-ethylsulfonyl-2-pyridyl]carbamate]
≥ 80%: effect mortality or growth inhibition at 200 ppm (Diabrotica balteata) | mortality at 200 ppm (Bemisia tabaci) | percent effect (mortality or growth inhibition) at 200 ppm (Plutella xylostella) | percent control (mortality, anti-feeding effect or growth inhibition) at 200 ppm (Spodoptera littoralis)

CCn1c(C(F)(F)F)cc2nc(-c3nc(N)c(C#N)cc3S(=O)(=O)CC)n(C)c2c1=O [Compound A72]
≥ 80%: percent effect (mortality or growth inhibition) at 200 ppm (Plutella xylostella) | percent effect (mortality or growth inhibition) at 200 ppm (Euschistus heros) | percent control (mortality, anti-feeding effect or growth inhibition) at 200 ppm (Spodoptera littoralis) | mortality at 24 ppm (Myzus persicae [1])
